Consider two molecules from patent US10183063B2, “Injection composition comprising hyaluronidase for removal of topical fat” (priority 2016, dated 2019).

The test system of one experiment is topical fat. The experiment is classed as in vivo, human. The source says:
In order to find the optimal doses of hyaluronidase facilitating lipolysis, the present inventor conducted experiments with hyaluronidase unit doses of 10 IU, 50 IU, 100 IU, 150 IU, 200 IU, 250 IU, 300 IU, 350 IU, 400 IU, 450 IU, 500 IU, 550 IU, 600 IU, 650 IU, 700 IU, 750 IU, 800 IU, 850 IU, 900 IU, 950 IU, 1000 IU, 1050 IU, 1100 IU, 1150 IU, 1200 IU, 1250 IU, 1300 IU, 1350 IU, 1400 IU, 1450 IU, and 1500 IU.
It was shown in clinical trials that at the above dose range, if the injection composition is administered in a volume of 1 cc containing 300 IU of hyaluronidase, the diameter of the diffusion range is about 1 cm. Thus, with the hyaluronidase dose set at 300 IU to 600 IU, by injecting the composition at a volume of 0.5 to 2 cc depending on the hyaluronidase dose and at injection points with an interval of 0.5 to 1.5 cm between the injection points, injection at narrow intervals is possible and consequently, lipolysis occurs evenly. Furthermore, a lifting effect occurs concomitantly where skin resilience is improved by the promotion of collagen production through stimulation of the skin by the injection needle.
Thus, by administering an injection composition of the present invention having the above compositional ranges, the side effects from using the drugs are minimized and fat removal over a wide area can be carried out using a minimal volume.
It was shown in clinical trials that at a hyaluronidase of 300 IU, the diameter of the diffusion range for the injection composition is about 1 cm. Thus, by injecting the composition at narrow intervals between injection points of 0.5 to 2 cm, even fat removal as well as collagen production by skin stimulation can be facilitated.

For the molecule hyaluronidase, the Lipolysis result with topical fat (unit dose 300 IU or below) was “sufficient lipolysis did not occur”. For the same molecule, the Fat removal entry in the experiment with topical fat (unit dose above 600 IU) was “excellent effects were obtained in terms of fat removal”. Also, the “Fat removal effect and side effects” value in the experiment on topical fat (unit dose of 300 IU to 600 IU) was “possible to ensure the fat removal effect while minimizing side effects”. The “minimum amount of hyaluronidase exhibiting efficacy” value with topical fat (unit dose per injection) was determined as 300 IU.
Take `CCN(CC)CCOC(=O)c1ccc(N)cc1` [procaine]: the “time until the onset of action for the local anesthetic effect, later compared to lidocaine” value is given as “more than 10 minutes”.
